Results: patent US20250145637A1, “SULFONAMIDE DERIVATIVE, PREPARATION METHOD THEREFOR AND MEDICAL USE THEREOF” (Jiangsu Hengrui Pharmaceuticals Co. Ltd., priority 2021, published 2025)

How the values were obtained:
human KAT6A = human KAT6A (Homo sapiens (Human), UniProt Q92794); experiment: KAT6 enzyme activity assay (AlphaScreen method), KAT6A; format: biochemical; conditions: inhibition of the enzyme human KAT6A
Text: Test Example 1: KAT6 Enzyme Activity Assay (AlphaScreen Method)
I. Reagents and instrument • 1. KAT6A (customized by Chempartner) • 2. Ovalbumin (Sigma-Aldrich, A5378-5G) • 3. 2 M Tris-HCl solution, pH 7.8, sterile (Sangon, B548140-0500) • 4. 5 M NaCl solution (Sangon, B548121-0100) • 5. EDTA (0.5 M), pH 8.0, RNase-free (Thermofisher, AM9260G) • 6. Tween-20 (Sangon, A100777-0500) • 7. DTT, 1 M (Invitrogen, P2325) • 8. Acetyl coenzyme A (Ac-CoA, CAYMAN, Cat. No. 16160) • 9. Recombinant histone H3.1 biotinylated (human) (Active Motif 31696) • 10. 384-well plate, light gray (Perkin Elmer, Cat. No. 6005350) • 11. Anacardic acid (MCE, Cat. No. HY—N2020) • 12. AlphaScreen streptavidin donor beads, 5 mg (PerkinElmer, 6760002) • 13. AlphaScreen protein A acceptor beads, 5 mg (PerkinElmer, 6760137M) • 14. Acetylated-lysine antibody #9441 (CST 9441S) • 15. PHERA star microplate reader (BMG labtech) • II. Experimental method
a. 1× assay buffer: 100 mM Tris-HCl, pH 7.8; 15 mM NaCl; 1 mM EDTA; 0.01% tween-20; 1 mM DTT; 0.01% m/v ovalbumin.
b. KAT enzyme solution: 1.25 nM (final concentration), prepared in 1× assay buffer.
c. Mixed substrate of Ac-CoA and H3: a mixed substrate of 1000 nM (final concentration) Ac-CoA and 55 nM (final concentration) H3, prepared in 1× assay buffer.
d. Compounds: initial concentration of 100 μM, 3-fold dilution, 10 gradient concentrations. All compound concentrations were diluted 83-fold with 1× assay buffer for later use.
e. Assay reagent: 8 ng/μL (final concentration) AlphaScreen protein A acceptor beads, 8 ng/μL AlphaScreen streptavidin donor beads, 1:1500 diluted acetylated-lysine antibody, and 100 μM anacardic acid; prepared in 1× assay buffer.
2. Experimental Procedure
a. The prepared enzyme solution was added to a 384-well plate at 3 μL/well, and 3 μL of 1× assay buffer was added to each well in columns 23 and 24 (Min).
b. 3 μL of compound solution was added to each well, and 3 μL of buffer was added to each Min well; 3 μL of DMSO solution was added to each well in columns 1 and 2 (Max) as controls. The plate was centrifuged, shaken for 2 min, and incubated at room temperature for 15 min.
c. The mixed substrate of Ac-CoA and H3 was added at 6 μL/well, and the plate was centrifuged, shaken for 2 min, and incubated at room temperature for 20 min.
d. The assay reagent was added at 6 μL/well, and the plate was centrifuged, shaken for 2 min, and incubated in the dark at room temperature for 120 min.
e. Plate reading was performed on the microplate reader, and AlphaScreen counts were recorded.
f. Plotting was performed using the Graphpad software, and the IC50 values of the compounds were calculated.

[1] = Pharmacokinetic evaluation in SD rats; format: in vivo; conditions: both sexes, rat, plasma, po, i.g., 2.0 mg/kg
Procedure: Test Example 5: Pharmacokinetic Evaluation
SD rats were used as test animals. After intragastric (i.g.) administration of the compounds of the present disclosure to SD rats, the plasma concentrations at different time points were measured by the LC/MS/MS method. The pharmacokinetic behavior of the compounds of the present disclosure in SD rats was studied, and their pharmacokinetic profiles were evaluated.
Compound 2, compound 7, compound 21, and compound 23.
16 SD rats, of which half were male and half female, were evenly divided into 4 groups. The rats were provided by Vital River Laboratory Animal Technology Co., Ltd. The rats were fasted overnight and intragastrically administered the compounds.
2.3. Compound Solution Preparation
A certain amount of test compound was weighed out and dissolved in 5% DMSO+5% tween 80+90% normal saline to prepare a 0.2 mg/mL colorless clear solution.
The dose administered was 2.0 mg/kg, and the volume was 10.0 mL/kg.
0.1 mL blood samples were collected from the orbit before the administration and 0.25 h, 0.5 h, 1.0 h, 2.0 h, 4.0 h, 6.0 h, 8.0 h, 11.0 h and 24.0 h post-dose. The blood samples were placed into EDTA-K2 anticoagulation tubes and centrifuged at 10,000 rpm for 1 min (4° C.), and plasma was separated within 1 h and stored at −20° C. before analysis. The process from the blood collection to the centrifugation was performed in an ice bath. Access to food was given 2 h post-dose.
Measurement of plasma concentrations in SD rats after compounds were administered in different concentrations: 25 μL samples of the SD rat plasma collected at various time points post-dose were taken, and to each of the samples was added 25 μL of camptothecin (an internal standard for compound 2, 100 ng/mL) or 50 μL of tolbutamide (an internal standard for compound 7, 100 ng/mL) or 50 μL of verapamil (an internal standard for compounds 21 and 23, 100 ng/mL). Protein was precipitated with 200 μL of acetonitrile, and after 5 min of vortexing, the mixtures were centrifuged at 3700 rpm for 10 min. 120 µL of supernatant was taken and vortexed with 30 μL of water for 5 min, and a 5 μL sample was taken for LC/MS/MS analysis.

ZR-75-1 = ZR-75-1 proliferation assay (CellTiter-Glo, day 14); format: cell-based; conditions: Homo sapiens, 336 h, CTG assay day 14
Text: Test Example 4: ZR-75-1 Proliferation Assay
I. Reagents and Instruments
• 1. ZR-75-1 (ATCC CRL1500) • 2. 1640 medium (Gibco, 22400-089) • 3. 0.25% trypsin-EDTA (1×) (Gibco, 25200-072) • 4. Penicillin-streptomycin (Gibco, 15140-122) • 5. DPBS (1×) (Gibco, 14190-144) • 6. FBS (Gibco, 10091148) • 7. Assay plate, 96-well, black with clear bottom (Corning, 3603) • 8. 96-well non-treated round-bottom plate (JET BIOFIL, TCP-002-096) • 9. CellTiter-Glo buffer (Promega, G756B) • 10. CellTiter-Glo substrate (Promega, G755B) • 11. Automatic cell counter (Countstar, IC1000) • 12. Thermostatic incubator (Thermo, 1160) • 13. PHERAstar FS (BMG labtech, PHERAstar FS)
a. The state of cells was observed under a microscope to make sure that the cell confluence was about 90%.
b. The cell supernatant was discarded. The cells were rinsed with DPBS once, and the DPBS was removed. The cells were digested with a proper amount of trypsin and left to stand at 37° C. for 5 min.
c. The digestion was stopped with an equal volume of 1640 medium containing 10% FBS, and the cell suspension was collected and centrifuged at 300 g for 3 min. The cells were suspended in a proper amount of fresh medium.
d. The resulting cell suspension was collected and cell counting was performed.
e. The cell suspension was diluted to 5×10^4/mL, 50 μL/well with 1640 medium containing 10% FBS. Each well contained 2500 ZR-75-1 cells.
f. The cell culture plates were incubated overnight in a 37° C., 5% carbon dioxide incubator.
2. Compound Addition (Day 1)
a. Each compound was serially diluted in DMSO to 9 concentration points (initial concentration of 100 μM, 3-fold dilution; the highest concentration of each compound may be adjusted depending on its IC50). For example, in a 96-well non-treated round-bottom plate, 3 μL of compound was serially diluted in 6 μL of DMSO.
b. Each concentration point of each compound was diluted 500-fold in the corresponding volume of 1640 medium.
c. 50 μL of diluted compound solution was added to the cell supernatant (50 μL/well) in each cell plate.
d. After the addition, the cell plates were incubated in a 37° C., 5% carbon dioxide incubator.
3. The Cells were Re-Digested and Plated, and the Compounds were Added (Day 7).
a. Six days after the addition, the compound-containing medium was discarded. Then the cells were rinsed with DPBS (150 μL/well), and the DPBS was immediately pipetted off.
b. The cells were digested with 50 μL of trypsin and left to stand at 37° C. for 3 min, and then the digestion was stopped with 1640 medium containing 10% FBS (150 μL/well).
c. The cells were well mixed using a pipette and re-plated at a ratio of 1:8; that is, 25 μL of cell suspension was pipetted into a new 96-well plate (25 μL of 1640 medium containing 10% FBS had been added to the new plate in advance).
d. Compound solution preparation and addition (50 μL/well) were performed according to steps a to c in 2.
e. After the addition, the cell plates were incubated in a 37° C., 5% carbon dioxide incubator.
a. CellTiter-Glo buffer and lyophilized CellTiter-Glo substrate were equilibrated to room temperature before use and were well mixed to prepare a 100-mL CellTiter-Glo reagent (or a prepared CellTiter-Glo reagent was removed from a −20° C. freezer and equilibrated to room temperature).
b. The plates to be tested were removed from the incubator and equilibrated to room temperature, and the CellTiter-Glo reagent was added at 50 μL/well.
c. The plates were shaken for 2 min so that the cells were completely lysed.
d. After the plates were left to stand at room temperature for 28 min and signals were stable, the plates were tested on PHERAstar FS.

ERα expression = conditions: ER+ breast cancer cells highly expressing KAT6A; cited from earlier work
ER+ breast cancer = conditions: both in vitro and in vivo; cited from earlier work

human KAT6A, sequence (Q92794 whole entry): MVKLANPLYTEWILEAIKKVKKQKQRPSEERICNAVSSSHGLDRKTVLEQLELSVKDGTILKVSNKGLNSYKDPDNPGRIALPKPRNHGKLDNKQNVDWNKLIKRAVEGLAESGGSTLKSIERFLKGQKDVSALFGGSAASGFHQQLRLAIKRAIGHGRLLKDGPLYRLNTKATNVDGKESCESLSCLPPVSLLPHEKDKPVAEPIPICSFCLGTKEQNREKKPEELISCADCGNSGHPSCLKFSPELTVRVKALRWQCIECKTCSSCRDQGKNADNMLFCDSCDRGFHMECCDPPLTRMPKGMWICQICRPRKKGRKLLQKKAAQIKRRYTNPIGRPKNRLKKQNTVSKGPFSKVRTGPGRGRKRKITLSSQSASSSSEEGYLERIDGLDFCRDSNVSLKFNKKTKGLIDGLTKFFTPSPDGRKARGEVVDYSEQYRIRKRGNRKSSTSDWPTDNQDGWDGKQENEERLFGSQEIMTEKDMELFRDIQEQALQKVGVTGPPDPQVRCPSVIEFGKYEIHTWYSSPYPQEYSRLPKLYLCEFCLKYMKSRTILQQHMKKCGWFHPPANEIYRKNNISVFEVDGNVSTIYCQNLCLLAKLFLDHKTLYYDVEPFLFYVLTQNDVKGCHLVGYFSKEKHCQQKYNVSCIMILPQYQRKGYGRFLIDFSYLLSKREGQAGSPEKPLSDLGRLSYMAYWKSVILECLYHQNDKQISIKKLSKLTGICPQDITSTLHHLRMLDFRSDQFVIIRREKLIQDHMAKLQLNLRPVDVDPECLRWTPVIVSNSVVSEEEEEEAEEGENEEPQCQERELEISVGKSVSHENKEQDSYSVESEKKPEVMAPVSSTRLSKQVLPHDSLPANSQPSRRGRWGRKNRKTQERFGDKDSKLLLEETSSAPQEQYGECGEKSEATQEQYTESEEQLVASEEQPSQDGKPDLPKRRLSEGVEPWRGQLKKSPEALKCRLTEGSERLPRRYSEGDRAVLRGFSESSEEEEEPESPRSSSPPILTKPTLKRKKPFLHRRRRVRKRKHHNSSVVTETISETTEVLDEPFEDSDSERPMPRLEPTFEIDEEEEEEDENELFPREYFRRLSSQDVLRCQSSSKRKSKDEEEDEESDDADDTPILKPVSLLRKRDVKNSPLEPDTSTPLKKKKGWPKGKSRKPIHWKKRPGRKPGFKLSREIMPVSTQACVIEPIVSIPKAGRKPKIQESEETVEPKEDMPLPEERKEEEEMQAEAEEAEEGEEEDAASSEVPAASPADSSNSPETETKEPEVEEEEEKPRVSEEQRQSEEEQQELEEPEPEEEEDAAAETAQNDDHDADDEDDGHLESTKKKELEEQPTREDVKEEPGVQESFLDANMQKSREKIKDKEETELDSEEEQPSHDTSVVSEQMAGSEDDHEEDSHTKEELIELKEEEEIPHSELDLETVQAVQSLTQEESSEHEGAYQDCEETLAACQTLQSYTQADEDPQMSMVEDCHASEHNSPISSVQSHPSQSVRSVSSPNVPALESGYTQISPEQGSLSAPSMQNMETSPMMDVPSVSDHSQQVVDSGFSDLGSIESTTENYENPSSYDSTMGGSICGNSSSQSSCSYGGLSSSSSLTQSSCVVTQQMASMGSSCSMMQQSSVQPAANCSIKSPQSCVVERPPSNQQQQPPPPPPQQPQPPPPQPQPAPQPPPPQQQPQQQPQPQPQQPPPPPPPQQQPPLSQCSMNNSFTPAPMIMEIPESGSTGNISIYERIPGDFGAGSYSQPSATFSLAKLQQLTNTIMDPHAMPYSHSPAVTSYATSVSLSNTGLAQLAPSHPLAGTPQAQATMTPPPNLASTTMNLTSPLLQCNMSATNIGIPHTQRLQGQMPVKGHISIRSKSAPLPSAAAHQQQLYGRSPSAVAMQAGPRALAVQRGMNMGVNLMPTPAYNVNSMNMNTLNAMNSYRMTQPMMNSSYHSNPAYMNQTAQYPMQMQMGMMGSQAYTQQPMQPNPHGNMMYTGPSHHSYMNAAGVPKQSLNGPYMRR

IC50 (human KAT6A) [nM] | Vd/F ([1]; read-out: Apparent distribution volume Vz/F) [L/kg] | AUC(0-t) ([1]; read-out: Area under curve AUC0-t) [ng·h/mL] | CL/F ([1]; read-out: Clearance rate CL/F) [mL/min/kg] | half-life ([1]; read-out: Half-life T½ (converted)) [h] | Cmax ([1]; read-out: Plasma concentration Cmax) [ng/mL] | SMILES | IC50 (ZR-75-1; ZR-75-1 proliferation) [nM] | Emax (ZR-75-1; inhibition of ZR-75-1 proliferation, read-out: Maximum inhibition rate/Imax %) [%] | ERα expression (ERα expression) | anti-tumor activity in ER+ breast cancer (ER+ breast cancer)
4.6 | 0.496 | 43700 | 0.788 | 9.58 | 4310 | Cc1ccc(S(=O)(=O)Nc2noc3cc(Cn4cccn4)c4c(c23)OCC4)c(OCC(F)(F)F)c1 [Compound 21, N-(4-((1H-pyrazol-1-yl)methyl)-2,3-dihydrobenzofuro[7,6-d]isoxazol-8-yl)-4-methyl-2-(2,2,2-trifluoroethoxy)benzenesulfonamide] | – | – | – | –
0.4 | – | – | – | – | – | COc1cc2c(cc1S(=O)(=O)Nc1noc3cc(Cn4cccn4)c4c(c13)OCCC4)CCC2 [Compound 6, N-(5-((1H-pyrazol-1-yl)methyl)-3,4-dihydro-2H-chromeno[8,7-d]isoxazol-9-yl)-6-methoxy-2,3-dihydro-1H-indene-5-sulfonamide] | 0.6 | 95.4 | – | –
– | – | – | – | – | – | COc1cccc(OC)c1S(=O)(=O)Nc1noc2cc(Cn3cccn3)cc(OC)c12 [CTx-648] | – | – | can down-regulate ERα expression | shows anti-tumor activity
